Measured values from patent US6852741B2, “Compositions and methods for treatment of neurological disorders” (University of Florida, priority 2001, dated 2005).

Columns and labels:
[1] = biological target: T1, α3β4(6′F10′T) nicotinic acetylcholine receptor (Rattus norvegicus, UniProt P04757+P12392, A272T/S268F); assay: Two-electrode voltage clamp of Xenopus oocytes expressing mutant α3β4(6′F10′T) receptors; format: cell-based; conditions: for Effect of hyperpolarized holding potential on residual inhibition: −100 mV versus −50 mV; for Residual inhibition of mutant compared with wild-type receptor: after 5 minute wash
T1 construct: expressed in transfected cells; host or cells: Xenopus laevis oocytes injected with subunit cRNAs; mutant made by QuikChange site-directed mutagenesis
T1 sequence (P04757 26-499): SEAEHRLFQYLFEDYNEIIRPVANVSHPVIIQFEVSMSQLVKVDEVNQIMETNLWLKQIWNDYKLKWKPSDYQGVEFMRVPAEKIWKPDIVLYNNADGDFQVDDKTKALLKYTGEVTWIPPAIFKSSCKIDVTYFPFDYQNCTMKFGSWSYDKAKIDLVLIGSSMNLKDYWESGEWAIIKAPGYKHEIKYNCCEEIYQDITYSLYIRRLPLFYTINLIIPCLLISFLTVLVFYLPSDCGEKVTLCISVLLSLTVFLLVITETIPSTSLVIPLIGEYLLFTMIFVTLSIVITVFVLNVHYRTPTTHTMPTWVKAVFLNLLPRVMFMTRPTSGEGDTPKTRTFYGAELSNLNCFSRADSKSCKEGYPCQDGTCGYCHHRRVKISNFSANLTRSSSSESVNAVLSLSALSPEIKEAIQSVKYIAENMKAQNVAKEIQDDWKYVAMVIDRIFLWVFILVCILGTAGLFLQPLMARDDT
T1 sequence (P12392 21-495 S268F/A272T): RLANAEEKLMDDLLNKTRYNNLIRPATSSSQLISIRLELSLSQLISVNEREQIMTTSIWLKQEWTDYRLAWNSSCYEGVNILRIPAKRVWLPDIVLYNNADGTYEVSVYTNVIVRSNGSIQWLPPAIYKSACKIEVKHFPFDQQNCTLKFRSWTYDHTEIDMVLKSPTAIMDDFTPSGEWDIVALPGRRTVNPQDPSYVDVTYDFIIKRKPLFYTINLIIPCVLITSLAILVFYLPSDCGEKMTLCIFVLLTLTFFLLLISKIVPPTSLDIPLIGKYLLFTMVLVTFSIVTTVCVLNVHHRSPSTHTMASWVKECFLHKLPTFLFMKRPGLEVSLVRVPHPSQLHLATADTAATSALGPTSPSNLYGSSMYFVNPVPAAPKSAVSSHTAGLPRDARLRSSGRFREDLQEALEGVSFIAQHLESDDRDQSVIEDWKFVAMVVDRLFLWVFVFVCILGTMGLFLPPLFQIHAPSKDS
Experimental: cDNA clones. […] The sequences of the TM2 domains of the relevant subunits are shown below.
Construction of site-directed mutants. Site-directed mutagenesis was conducted with […] kits ([…], LaJolla, Calif.). In brief, two complimentary oligonucleotides were synthesized which contain the desired mutation flanked by 10-15 bases of unmodified nucleotide sequence. Using a thermal cycler, Pfu DNA polymerase extended the sequence around the whole vector, generating a plasmid with staggered nicks. […] After 12-16 cycles, the product was treated with Dpn I, which digested the methylated parent DNA into numerous small pieces. The product was then transformed into E. coli cells, which repaired the nicks. Mutations were confirmed by DNA sequencing.
(§1) Preparation of RNA. After linearization and purification of cloned cDNAs, RNA transcripts were prepared in vitro using the appropriate mMessage mMachine kit from AMBION Inc. (Austin, Tex.).
(§2) Expression in Xenopus oocytes. Mature (>9 cm) female Xenopus laevis African toads (NASCO, Ft. Atkinson, Wis.) were used as a source of oocytes. Prior to surgery, frogs were anesthetized by placing the animal in a 1.5 g/L solution of MS222 (3-aminobenzoic acid ethyl ester). Eggs were removed from an incision made in the abdomen. […] Subsequently, stage 5 oocytes were isolated and injected with 50 nl (5-20 ng) each of a mixture of the appropriate subunit cRNAs following harvest. Recordings were made 1 to 7 days after injection depending on the cRNAs being tested.
(§3) Electrophysiology. […] Data were acquired using Labview software (NATIONAL INSTRUMENTS) or pClamp8 (AXON INSTRUMENTS) and filtered at a rate of 6 Hz. […] A Mariotte flask filled with Ringer's solution was used to maintain a constant hydrostatic pressure for drug deliveries and washes. Drugs were diluted in perfusion solution and loaded into a 2 ml loop at the terminus of the perfusion line. A bypass of the drug-loading loop allowed bath solution to flow continuously while the drug loop was loaded, and then drug application was synchronized with data acquisition by using a 2-way electronic valve. The rate of bath solution exchange and all drug applications was 6 ml/min. Current electrodes were filled with a solution containing 250 mM CsCl, 250 mM CsF and 100 mM EGTA and had resistances of 0.5-2 MΩ. Voltage electrodes were filled with 3 M KCl and had resistances of 1-3 MΩ.
(§4) Experimental protocols and data analysis. Current responses to drug application were studied under two-electrode voltage clamp at a holding potential of −50 mV unless otherwise noted. Holding currents immediately prior to agonist application were subtracted from measurements of the peak response to agonist.
(§5) The ratio of C2/C1 is referred to as the recovery response (FIGS. 2B, 3B and 3D). Measurements of C2/C1 that were <0.75 were taken to indicate that the experimental drug application produced some form of residual inhibition. An oocyte was not used for further experimental drug applications when the measurements of C2/C 1 became less than 0.75.
(§6) Means and standard errors (SEM) were calculated from the normalized responses of at least four oocytes for each experimental concentration. For concentration-response relations (FIGS. 2 & 3), data were plotted using Kaleidagraph 3.0.2 (ABELBECK SOFTWARE; Reading, Pa.), and curves were generated from the Hill equation. [formula]
(§7) In Formula I, Imax denotes the maximal response for a particular agonist/subunit combination, and n represents the Hill coefficient. Imax, n, and the EC50 were all unconstrained for the fitting procedures.
(§8) The values for the C2/C1 ratios were plotted as functions of the experimental agonist concentrations applied between the C2 and C1 control responses. The data were then fit to the Hill equation with n constrained to equal −1 for the calculation of IC50 values.

[2] = biological target: T2, α3β4 nicotinic acetylcholine receptor (Rattus norvegicus, UniProt P04757+P12392); assay: Two-electrode voltage clamp of Xenopus oocytes expressing wild-type α3β4 receptors; format: cell-based; conditions: for Protection from residual inhibition produced by 100 μM DMXB: pre-treatment and co-application, 100 μM ACh control after 5 minute wash
T2 construct: expressed in transfected cells; host or cells: Xenopus laevis oocytes injected with subunit cRNAs
T2 sequence (P04757 26-499): as the sequence (P04757 26-499) above
T2 sequence (P12392 21-495): as the sequence (P12392 21-495 S268F/A272T) above, with F248S, T252A counted along it
Experimental: as §1, §2, §3, §4, §5, §6, §7
as §8, with “values. Determination of significant differences between experimental and control groups (FIGS. 4A-4B and 5A-5D) was made by t-test (unpaired two-tailed).” for “values.”

[3] = Hill fit of peak currents, holding potential −50 mV

CN1CCCC1c1cccnc1 (single isomer, unassigned; (-)) [Nicotine, (−)-Nicotine]
n (Hill coefficient) ([1]; Hill fit of peak currents): 0.8 ± 0.3
Persistence of residual inhibition ([1]; repeated applications, data not shown): up to an hour
Effect of hyperpolarized holding potential on residual inhibition [1]: enhanced
n (Hill coefficient) ([2]; Hill fit of peak currents): 1.2 ± 0.2

CCCCNc1ccc(C(=O)OCCN(C)C)cc1 [tetracaine]
Protection from residual inhibition produced by 100 μM DMXB [2]: neither of these agents provided any protection

CNCC/C=C/c1cccnc1 [TC-2403, (E)-N-methyl-4-(3-pyridinyl)-3-butene-1-amine]
n (Hill coefficient) ([1]; Hill fit of peak currents): 2.1 ± 0.2
Max response (relative to ACh Maximum) [1, 3]: 0.38 ± 0.01
EC50 ([1]; activation of peak currents): 111 ± 5 µM
Control ACh response after application, relative to pre-application control values ([1]; after 1 mM TC-2403, 5 minute wash): 70±6%
Residual inhibition of mutant compared with wild-type receptor [1]: no significant increase in residual inhibition at concentrations less than 1 mM
Protection from residual inhibition produced by 100 μM DMXB ([1]; pre-treatment and co-application, p<0.01 for TC-2403): significant protection
Protection from residual inhibition produced by 300 μM nicotine ([1]; pre-treatment and co-application, p<0.05 for TC-2403): significant protection
n (Hill coefficient) ([2]; Hill fit of peak currents): 2.1 ± 0.2
Max response (relative to ACh Maximum) [2, 3]: 0.09 ± 0.01
EC50 ([2]; activation of peak currents): 347 ± 12 µM
Protection from residual inhibition produced by 100 μM DMXB [2]: significant (p<0.05) reduction in the residual inhibition

COc1ccc(/C=C2\CCCN=C2c2cccnc2)c(OC)c1 [DMXB, 3-[2,4-dimethoxybenzylidene]-anabaseine]
IC50 [1]: 23 ± 17 µM
Response to 100 μM ACh when co-applied with DMXB ([1]; 30 μM DMXB co-applied with 100 μM ACh): 13±2%
Effect of ACh co-application on DMXB-induced residual inhibition ([1]; 30 μM DMXB co-applied with ACh): large increase in the residual inhibition
Residual inhibition of mutant compared with wild-type receptor [1]: more inhibition after it was applied at 100 or 300 μM
Effect of hyperpolarized holding potential on residual inhibition [1]: enhanced
IC50 [2]: 121 ± 48 µM
Activation on co-application with 100 μM ACh, relative to ACh alone ([2]; 100 μM DMXB co-applied with 100 μM ACh): 4±0.2%
Effect of ACh co-application on DMXB-induced inhibition ([2]; DMXB co-applied with 100 μM ACh): not enhanced
Effect of hyperpolarized holding potential on residual inhibition ([2]; −100 mV versus −50 mV): enhanced

CC[N+](CC)(CC)CC(=O)Nc1c(C)cccc1C [QX-314, 2-(triethylamino)-N-(2,6-dimethylphenyl)-acetamide]
Protection from residual inhibition produced by 100 μM DMXB [2]: neither of these agents provided any protection
